What was measured:
[1] = target: T1, glutathione S-transferase (GST)-linked full-length human Syk protein (Homo sapiens, UniProt P43405); experiment: Syk enzyme assay; assay type: biochemical; conditions: 0.83 nM Syk, time-resolved fluorescence; read-out: IC50 of Syk-inhibitory activity
T1 construct: glutathione S-transferase (GST)-linked full-length human Syk protein; purchased Carna Biosciences; host or cells: Baculovirus expression system
Outline: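 Phosphotyrosine on a biotin-peptide substrate (0.5 μM) was read by time-resolved fluorescence at 615 and 665 nm with Eu-anti-pTyr antibody and APC-streptavidin after 1 h EDTA stop.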

[2] = tested on: THP-1 cells (phagocytosis of opsonized Escherichia coli); experiment: Antibody-dependent phagocytosis assay; assay type: cell-based; conditions: Homo sapiens; IFNγ differentiated THP-1 cells, opsonized pHrodo Escherichia coli, 3 hours; read-out: IC50 upon phagocytosis inhibition
Procedure: THP-1 cells (2×10^5 cells/ml), which were human monocytoid cells, were cultured in the presence of 10 ng/ml IFNγ for 2 days, and they were induced to differentiate into macrophage-like cells. The differentiation-induced THP-1 cells were recovered, and the cells (5×10^4 cells/well) were then allowed to react with a predetermined concentration of test compound at room temperature for 30 minutes. Thereafter, Escherichia coli (Life Technologies) labeled with a pH-sensitive dye (pHrodo) was subjected to opsonization using an anti-Escherichia coli antibody (Life Technologies). Then, the resultant was added to the THP-1 cells obtained above, followed by incubation at 37° C. for 3 hours. Opsonized Escherichia coli and cell-permeable fluorescent dye (Calcein AM) were simultaneously added thereto, followed by quantitative determination of phagocytosis of opsonized Escherichia coli in viable cells using an IN Cell Analyzer.

COC[C@@H](Nc1nc(Nc2cnc(C)c(-n3nccn3)c2)c(C(N)=O)cc1F)[C@H](C)N [Example 2-197, 6-(((2S,3S)-3-amino-1-methoxybutan-2-yl)amino)-5-fluoro-2-((6-methyl-5-(2H-1,2,3-triazol-2-yl)pyridin-3-yl)amino)nicotinamide]
IC50 [1]: 10 to 50 nM | IC50 [2]: 3000 to 6000 nM

CCC[C@@H](Nc1nc(Nc2cnc(OC)c(-n3ccnn3)c2)c(C(N)=O)cc1F)[C@H](C)N [Example 2-205, 6-(((2S,3R)-2-aminohexan-3-yl)amino)-5-fluoro-2-((6-methoxy-5-(1H-1,2,3-triazol-1-yl)pyridin-3-yl)amino)nicotinamide]
IC50 [1]: 10 to 50 nM | IC50 [2]: 1000 to 3000 nM

NC(=O)c1cc(F)c(N[C@@H]2CCOC[C@@H]2N)nc1Nc1cnc(N2CCOCC2)c(F)c1 [Example 2-217, 6-(((3R,4R)-3-aminotetrahydro-2H-pyran-4-yl)amino)-5-fluoro-2-((5-fluoro-6-morpholinopyridin-3-yl)amino)nicotinamide]
IC50 [1]: 50 to 100 nM | IC50 [2]: 1000 to 3000 nM

NC(=O)c1cc(F)c(N[C@@H]2CCOC[C@@H]2N)nc1Nc1ccnc(N2CCOCC2)c1F [Example 2-231, 6-(((3R,4R)-3-aminotetrahydro-2H-pyran-4-yl)amino)-5-fluoro-2-((3-fluoro-2-morpholinopyridin-4-yl)amino)nicotinamide]
IC50 [1]: 10 to 50 nM | IC50 [2]: 1000 to 3000 nM

CC(C)C[C@@H](Nc1nc(Nc2cc(N3CCOCC3)ncc2F)c(C(N)=O)cc1F)[C@H](C)N [Example 2-236, 6-(((2S,3R)-2-amino-5-methylhexan-3-yl)amino)-5-fluoro-2-((5-fluoro-2-morpholinopyridin-4-yl)amino)nicotinamide]
IC50 [1]: 10 to 50 nM | IC50 [2]: 1000 to 3000 nM

NC(=O)c1cc(F)c(N[C@@H]2CCCC[C@@H]2N)nc1Nc1cnc(OC(F)F)c(-n2nccn2)c1 [Example 2-238, 6-(((1R,2S)-2-aminocyclohexyl)amino)-2-((6-(difluoromethoxy)-5-(2H-1,2,3-triazol-2-yl)pyridin-3-yl)amino)-5-fluoronicotinamide]
IC50 [1]: 10 to 50 nM | IC50 [2]: < 1000 nM

CCCC[C@@H](Nc1nc(Nc2cnc3c(c2)c(N(C)C)nn3C)c(C(N)=O)cc1F)[C@H](C)N [Example 2-291, 6-(((2S,3R)-2-aminoheptan-3-yl)amino)-2-((3-(dimethylamino)-1-methyl-1H-pyrazolo[3,4-b]pyridin-5-yl)amino)-5-fluoronicotinamide]
IC50 [1]: 10 to 50 nM | IC50 [2]: 1000 to 3000 nM

CC(C)C[C@@H](Nc1nc(Nc2cnc3c(c2)c(N(C)C)nn3C)c(C(N)=O)cc1F)[C@H](C)N [Example 2-292, 6-(((2S,3R)-2-amino-5-methylhexan-3-yl)amino)-2-((3-(dimethylamino)-1-methyl-1H-pyrazolo[3,4-b]pyridin-5-yl)amino)-5-fluoronicotinamide]
IC50 [1]: < 10 nM | IC50 [2]: 1000 to 3000 nM

CCC[C@@H](Nc1nc(Nc2cccc3c2cnn3CCOC)c(C(N)=O)cc1F)[C@H](C)N [Example 2-305, 6-(((2S,3R)-2-aminohexan-3-yl)amino)-5-fluoro-2-((1-(2-methoxyethyl)-1H-indazol-4-yl)amino)nicotinamide]
IC50 [1]: < 10 nM | IC50 [2]: 1000 to 3000 nM

C[C@H](N)[C@H](Nc1nc(Nc2ccc3ncccc3c2)c(C(N)=O)cc1F)c1ccccc1 [Example 2-312, 6-(((1R,2S)-2-amino-1-phenylpropyl)amino)-5-fluoro-2-(quinolin-6-ylamino)nicotinamide]
IC50 [1]: < 10 nM | IC50 [2]: < 1000 nM

Cc1ncc(Nc2nc(N[C@H](c3ccccc3)[C@H](C)N)c(F)cc2C(N)=O)cc1-n1nccn1 [Example 2-313, 6-(((1R,2S)-2-amino-1-phenylpropyl)amino)-5-fluoro-2-((6-methyl-5-(2H-1,2,3-triazol-2-yl)pyridin-3-yl)amino)nicotinamide]
IC50 [1]: < 10 nM | IC50 [2]: 3000 to 6000 nM

CC[C@@H](Nc1nc(Nc2cncc3c2cnn3CC)c(C(N)=O)cc1F)[C@H](C)N [Example 2-318, 6-(((2S,3R)-2-aminopentan-3-yl)amino)-2-((1-ethyl-1H-pyrazolo[3,4-c]pyridin-4-yl)amino)-5-fluoronicotinamide]
IC50 [1]: < 10 nM | IC50 [2]: 1000 to 3000 nM

Source: patent US9051310B2, “Nicotinamide derivative or salt thereof” (FUJIFILM Corporation, priority 2011, dated 2015)
